How the values were obtained:
human Edg-1(S1P1) [1] = biological target: T1, human Edg-1(S1P1) (Homo sapiens, UniProt P21453); assay: Cell system binding test: inhibition of [3H]-S1P binding to Edg-1(S1P1) gene transferred HEK-293 cells; conditions: 10 μM compound, [3H]-S1P 10 nM, read-out: Cell system binding test % inhibition (10 μM)
T1 construct: expressed in transfected cells; host or cells: HEK-293

human Edg-1(S1P1) [2] = biological target: T1, human Edg-1(S1P1); assay: Membrane system binding test: inhibition of [33P]-S1P binding to the membrane fraction of Edg-1(S1P1) gene transferred HEK-293 cells; conditions: 10 μM compound; [33P]-S1P 0.1 nM; membrane fraction of Edg-1(S1P1) gene transferred HEK-293 cells; read-out: Membrane system binding test % inhibition (10 μM)
How it was run: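 Membranes from HEK-293 cells transfected with Edg-1(S1P1) incubated 1 h at 30 °C with 0.1 nM [^33P]-S1P and compound at 10^−5 M (0.1% DMSO), pH 7.4 buffer with fatty acid-free BSA. Filter-bound radioactivity counted; inhibition rate calculated against no-compound binding, with untransfected-cell background subtracted.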

T1 sequence (P21453 whole entry): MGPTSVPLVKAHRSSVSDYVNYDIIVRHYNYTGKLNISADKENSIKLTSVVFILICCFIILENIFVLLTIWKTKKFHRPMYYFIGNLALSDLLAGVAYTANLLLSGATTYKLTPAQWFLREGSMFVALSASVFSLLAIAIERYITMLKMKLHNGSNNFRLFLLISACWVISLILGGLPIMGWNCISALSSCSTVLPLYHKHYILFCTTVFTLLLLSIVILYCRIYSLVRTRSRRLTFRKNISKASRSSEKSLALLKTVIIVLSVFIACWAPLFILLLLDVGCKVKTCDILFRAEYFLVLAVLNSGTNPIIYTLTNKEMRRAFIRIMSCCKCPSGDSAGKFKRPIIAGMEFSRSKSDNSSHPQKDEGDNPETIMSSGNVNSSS

inhibition at 10 µM (human Edg-1(S1P1) [1]) | inhibition at 10 µM (human Edg-1(S1P1) [2]) | SMILES
92.6% | 54.3% | CCn1c(OCCOC)nnc1[C@@H](C)NS(=O)(=O)c1ccc(Cl)cc1 [Compound 375]
97.9% | 90.3% | CCn1c(OCC(C)(C)C)nnc1[C@@H](C)NS(=O)(=O)c1ccc(Cl)cc1 [Compound 377]
103% | 87.2% | CCn1c(OCC2CCCCC2)nnc1[C@@H](C)NS(=O)(=O)c1ccc(Cl)cc1 [Compound 378]
99.7% | 93.4% | CCn1c(OC(C)C)nnc1[C@@H](C)NS(=O)(=O)c1ccc(Cl)cc1 [Compound 379]
105% | 85.2% | CCn1c(OCCCCCO)nnc1[C@@H](C)NS(=O)(=O)c1ccc(Cl)cc1 [Compound 380]
97.1% | 94.9% | CCn1c(OCc2ccccc2)nnc1[C@@H](C)NS(=O)(=O)c1ccc(Cl)cc1 [Compound 381]
97.8% | 99.6% | CCn1c(OC2CCCC2)nnc1[C@@H](C)NS(=O)(=O)c1ccc(Cl)cc1 [Compound 382]
82.2% | 66% | CCN(CC)C(=O)COc1nnc([C@@H](C)NS(=O)(=O)c2ccc(Cl)cc2)n1CC [Compound 383]
104% | 93.5% | C=CCCCOc1nnc([C@@H](C)NS(=O)(=O)c2ccc(Cl)cc2)n1CC [Compound 384]
99.9% | 90.1% | CCn1c(OCC2CCC2)nnc1[C@@H](C)NS(=O)(=O)c1ccc(Cl)cc1 [Compound 385]
102% | 99.3% | CCn1c(OC2CCC2)nnc1[C@@H](C)NS(=O)(=O)c1ccc(Cl)cc1 [Compound 387]
104% | 103% | CCn1c(OC2CCCCC2)nnc1[C@@H](C)NS(=O)(=O)c1ccc(Cl)cc1 [Compound 388]
96.3% | 89.6% | CCn1c(OCC(C)C)nnc1[C@@H](C)NS(=O)(=O)c1ccc(Cl)cc1 [Compound 389]
92.5% | 78.3% | CCn1c(OCCC(C)C)nnc1[C@@H](C)NS(=O)(=O)c1ccc(Cl)cc1 [Compound 391]
95.6% | 85.1% | CCn1c(OC2CCOC2)nnc1[C@@H](C)NS(=O)(=O)c1ccc(Cl)cc1 (some centres unmarked) [Compound 392]
82.4% | 65.3% | CCn1c(OCCN2CCOCC2)nnc1[C@@H](C)NS(=O)(=O)c1ccc(Cl)cc1 [Compound 393]
82.9% | 76.9% | CCn1c(OCCCN2CCOCC2)nnc1[C@@H](C)NS(=O)(=O)c1ccc(Cl)cc1 [Compound 394]
91.9% | 83.7% | CCn1c(OCC(F)(F)F)nnc1[C@@H](C)NS(=O)(=O)c1ccc(Cl)cc1 [Compound 395]
87.9% | 83.3% | CCCCOc1nnc([C@@H](C)NS(=O)(=O)c2ccc(Cl)cc2)n1CC [Compound 396]
88.6% | 92% | CCn1c(OCCCC(F)(F)F)nnc1[C@@H](C)NS(=O)(=O)c1ccc(Cl)cc1 [Compound 397]
85.8% | 93.5% | CCn1c(OCCCOC)nnc1[C@@H](C)NS(=O)(=O)c1ccc(Cl)cc1 [Compound 398]
88.1% | 92.2% | CCOc1nnc([C@@H](C)NS(=O)(=O)c2ccc(Br)cc2)n1CC [Compound 409]

More lines, now with the values behind:

SMILES | inhibition at 10 µM (human Edg-1(S1P1) [1]) | inhibition at 10 µM (human Edg-1(S1P1) [2])
CCn1c(OC)nnc1[C@@H](C)NS(=O)(=O)c1ccc2c(c1)OCCCO2 [Compound 343] | 98.9% | 41.4%
CCn1c(OC)nnc1[C@@H](C)NS(=O)(=O)c1ccc2c(c1)OCCN2C [Compound 344] | 102% | 65.8%
CCn1c(OC)nnc1[C@@H](C)NS(=O)(=O)c1cccc(C(C)=O)c1 [Compound 355] | 101% | 62.8%
CCn1c(OC)nnc1[C@@H](C)NS(=O)(=O)c1cccc2cnccc12 [Compound 365] | 81.7% | 41.8%
CCn1c(OC)nnc1[C@@H](C)NS(=O)(=O)c1cc(C)sc1C [Compound 367] | 97% | 41.8%
CCn1c(OC)nnc1[C@@H](C)NS(=O)(=O)c1csc2ccccc12 [Compound 368] | 102% | 85.1%
CCn1c(OC)nnc1[C@@H](C)NS(=O)(=O)c1cc2ccccc2s1 [Compound 369] | 105% | 102%
CCn1c(OC)nnc1[C@@H](C)NS(=O)(=O)c1cc(Br)cc(C(F)(F)F)c1 [Compound 371] | 102% | 61.2%
CCn1c(OC)nnc1[C@@H](C)NS(=O)(=O)c1ccc(Br)c(C(F)(F)F)c1 [Compound 372] | 105% | 94.3%
CCCOc1nnc([C@@H](Cc2ccccc2)NS(=O)(=O)c2ccc(Cl)cc2)n1CC [Compound 386] | 103% | 99.5%
CCn1c(OC)nnc1[C@@H](Cc1ccccc1)NS(=O)(=O)c1ccc(Cl)cc1 [Compound 390] | 101% | 99.8%
CCOc1nnc([C@@H](C)NS(=O)(=O)c2ccc(F)c(C(F)(F)F)c2)n1CC [Compound 399] | 88.5% | 90.9%
CCOc1nnc([C@@H](C)NS(=O)(=O)c2ccc(Br)s2)n1CC [Compound 400] | 92.8% | 84.8%
CCOc1nnc([C@@H](C)NS(=O)(=O)c2ccc(Cl)c(Cl)c2)n1CC [Compound 401] | 92.8% | 87.2%
CCOc1nnc([C@@H](C)NS(=O)(=O)c2ccc3ccccc3c2)n1CC [Compound 402] | 90.4% | 95.8%
CCOc1nnc([C@@H](C)NS(=O)(=O)c2ccc(F)c(F)c2)n1CC [Compound 403] | 86.1% | 85.9%
CCOc1nnc([C@@H](C)NS(=O)(=O)c2ccc(C)c(Cl)c2)n1CC [Compound 404] | 91.2% | 90%
CCOc1nnc([C@@H](C)NS(=O)(=O)c2ccc(Br)c(F)c2)n1CC [Compound 405] | 90.4% | 88.2%
CCOc1nnc([C@@H](C)NS(=O)(=O)c2cc3ccccc3s2)n1CC [Compound 406] | 90.1% | 92.5%
CCOc1nnc([C@@H](C)NS(=O)(=O)c2ccc(F)c(Cl)c2)n1CC [Compound 407] | 94.7% | 81.9%
CCOc1nnc([C@@H](C)NS(=O)(=O)c2cccc(Br)c2)n1CC [Compound 408] | 88.5% | 84.9%
CCOc1nnc([C@@H](C)NS(=O)(=O)c2ccc(C)c(C)c2)n1CC [Compound 410] | 96.4% | 86.1%
CCOc1nnc([C@@H](C)NS(=O)(=O)c2ccc(C)c(F)c2)n1CC [Compound 411] | 95.9% | 81.8%
CCOc1nnc([C@@H](C)NS(=O)(=O)c2ccc(Br)c(Br)c2)n1CC [Compound 412] | 99.9% | 89.1%
